Data set [1] deals with 3CLpro of MERS-CoV (Middle East respiratory syndrome-related coronavirus, UniProt K9N7C7). The data set can be described thus: biochemical. The format is biochemical.
The target in data set [2] is T1, 3CLpro of SARS-CoV-2 (Severe acute respiratory syndrome coronavirus 2, UniProt P0DTD1).
T1 construct: The codon-optimized cDNA of full length of 3CLpro of SARS-CoV-2; 6xHis (N); made in house; pET-28a(+) vector (points to E. coli, my inference)
The data set can be described thus: biochemical. It counts as biochemical.

The nature of data set [3]: Nonspecific cytotoxic effects (CC50), CytoTox 96 kit.

The record followed here is patent US12583820B2, “Broad spectrum antivirals against coronavirus” (priority 2020, dated 2026).

Where two headings read alike, the source gives them in different places. Some results are limits rather than exact numbers.

In general, IC50 refers to the concentration at which inhibition is half-maximal. What is called CC50 is the concentration giving 50% cytotoxicity. Read a low CC50 as greater toxicity to the cells.

3CLpro of MERS-CoV, sequence (K9N7C7 3248-3553 limits assumed): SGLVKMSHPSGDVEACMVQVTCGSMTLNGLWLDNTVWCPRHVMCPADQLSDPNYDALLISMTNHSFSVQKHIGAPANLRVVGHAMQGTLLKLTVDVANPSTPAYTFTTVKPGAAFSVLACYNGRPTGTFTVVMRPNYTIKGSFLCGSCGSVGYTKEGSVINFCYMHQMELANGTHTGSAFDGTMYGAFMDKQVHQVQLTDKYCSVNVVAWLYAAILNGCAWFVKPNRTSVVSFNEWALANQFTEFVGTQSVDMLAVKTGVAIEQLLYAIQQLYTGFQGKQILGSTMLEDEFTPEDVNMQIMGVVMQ

Turning to `CC(C)C[C@H](NC(=O)OC(Cc1ccccc1)C1CCC(F)(F)CC1)C(=O)N[C@@H](C[C@@H]1CCNC1=O)C(O)S(=O)(=O)O` (stereo partly drawn) [Compound 14c, Sodium (2S)-2-((2S)-2-(((1-(4,4-difluorocyclohexyl)-2-phenylethoxy)carbonyl)amino)-4-methylpentanamido)-1-hydroxy-3-((S)-2-oxopyrrolidin-3-yl)propane-1-sulfonate], the half-inhibitory concentration (IC50) in data set [1] was 160 nM; in data set [2], 220 nM. The cytotoxic concentration (CC50) at 72 h in data set [3] was greater than 100000 nM.

For `CC(C)C[C@H](NC(=O)OCc1cccc(F)c1)C(=O)N[C@@H](C[C@@H]1CCNC1=O)C(O)S(=O)(=O)O` (stereo partly drawn) [Compound 18c, Sodium (2S)-2-((S)-2-((((3-fluorobenzyl)oxy)carbonyl)amino)-4-methylpentanamido)-1-hydroxy-3-((S)-2-oxopyrrolidin-3-yl)propane-1-sulfonate], the results for the half-inhibitory concentration (IC50) in data set [1] and in data set [2] were 80 nM and 310 nM, respectively. The molecule also had a cytotoxic concentration (CC50) at 72 h in data set [3] greater than 100000 nM.

In the case of `CC(C)C[C@H](NC(=O)OC1CCC(C)(C)CC1)C(=O)N[C@@H](C[C@@H]1CCNC1=O)C(O)S(=O)(=O)O` (stereo partly drawn) [Compound 1c, Sodium (2S)-2-((S)-2-((((4,4-dimethylcyclohexyl)oxy)carbonyl)amino)-4-methylpentan amido)-1-hydroxy-3-((S)-2-oxopyrrolidin-3-yl)propane-1-sulfonate], the 50% inhibitory concentration (IC50) in data set [1] was determined as 90 nM; in data set [2] (read-out: IC50), 240 nM. In data set [3], this molecule registered a CC50 at 72 h greater than 100000 nM.

`CC(C)C[C@H](NC(=O)O[C@H]1CC[C@H](C(C)C)CC1)C(=O)N[C@H](C=O)C[C@@H]1CCNC1=O` [Compound 2b, (1r,4S)-4-isopropylcyclohexyl ((S)-4-methyl-1-oxo-1-(((S)-1-oxo-3-((S)-2-oxopyrrolidin-3-yl)propan-2-yl)amino)pentan-2-yl)carbamate]: in data set [2], the IC50 was 250 nM. This molecule also registered a half-maximal cytotoxic concentration (CC50) at 72 h in data set [3] greater than 100000 nM.

`CC(C)C[C@H](NC(=O)OC(Cc1ccccc1)c1ccccc1)C(=O)N[C@H](C=O)C[C@@H]1CCNC1=O` (stereo partly drawn) [Compound 24b, 1,2-Diphenylethyl ((S)-4-methyl-1-oxo-1-(((S)-1-oxo-3-((S)-2-oxopyrrolidin-3-yl)propan-2-yl)amino)pentan-2-yl)carbamate] came in with an IC50 in data set [2] of 4100 nM. Moreover, the 50% cytotoxic concentration (CC50) at 72 h in data set [3] is greater than 100000 nM.

`CCCC1CCC(COC(=O)NC(CC(C)C)C(=O)NC(C=O)CC2CCNC2=O)CC1` [Compound 8b, ((1r,4R)-4-Propylcyclohexyl) methyl ((2S)-4-methyl-1-oxo-1-(((2S)-1-oxo-3-(2-oxopyrrolidin-3-yl)propan-2-yl)amino)pentan-2-yl) carbamate]: the IC50 in data set [2] was 220 nM. This molecule also registered a CC50 at 72 h in data set [3] greater than 100000 nM.

For the molecule `CC(C)C[C@H](NC(=O)OCc1c(F)c(F)c(F)c(F)c1F)C(=O)N[C@@H](CC1CCNC1=O)C(O)S(=O)(=O)O` (stereo partly drawn) [Compound 21c, Sodium (2S)-1-hydroxy-2-((S)-4-methyl-2-((((perfluorophenyl)methoxy)carbonyl)amino)pentanamido)-3-(2-oxopyrrolidin-3-yl) propane-1-sulfonate], the IC50 in data set [1] is 70 nM. Further, the CC50 at 72 h in data set [3] was greater than 100000 nM.

`O=C(N[C@@H](CC1CCCCC1)C(=O)N[C@@H](C[C@@H]1CCNC1=O)C(O)S(=O)(=O)O)OC1CCC(F)(F)CC1` (stereo partly drawn) [Compound 7i (Scheme 1), sodium (2S)-2-((S)-3-cyclohexyl-2-((((4,4-difluorocyclohexyl)oxy)carbonyl)amino)propan-amido)-1-hydroxy-3-((S)-2-oxopyrrolidin-3-yl)propane-1-sulfonate] came in with an IC50 in data set [1] greater than 50000 nM. The same molecule yielded a half-maximal cytotoxic concentration (CC50) at 72 h in data set [3] greater than 100000 nM.

Turning to `CC(C)C[C@H](NC(=O)OC1CCC(C)(C)CC1)C(=O)N[C@H](C=O)C[C@@H]1CCNC1=O` [Compound 1b, 4,4-Dimethylcyclohexyl ((S)-4-methyl-1-oxo-1-(((S)-1-oxo-3-((S)-2-oxopyrrolidin-3-yl)propan-2-yl)amino)pentan-2-yl)carbamate], the IC50 in data set [2] came to 280 nM. In data set [3], the CC50 at 72 h is greater than 100000 nM.

`CC(C)C[C@H](NC(=O)OC(C)C1CCC(F)(F)CC1)C(=O)N[C@H](C=O)C[C@@H]1CCNC1=O` (stereo partly drawn) [Compound 12b, 1-(4,4-Difluorocyclohexyl)ethyl ((S)-4-methyl-1-oxo-1-(((S)-1-oxo-3-((S)-2-oxopyrrolidin-3-yl)propan-2-yl)amino)pentan-2-yl)carbamate] yielded a half-maximal inhibitory concentration (IC50) in data set [2] of 210 nM. This molecule registered a half-maximal cytotoxic concentration (CC50) at 72 h in data set [3] greater than 100000 nM.

The molecule `CCCCC1CCC(OC(=O)NC(CC(C)C)C(=O)NC(CC2CCNC2=O)C(O)S(=O)(=O)O)CC1` [Compound 4c, Sodium (2S)-2-((S)-2-(((((1s,4S)-4-butylcyclohexyl)oxy)carbonyl)amino)-4-methylpentan amido)-1-hydroxy-3-((S)-2-oxopyrrolidin-3-yl)propane-1-sulfonate] returned a half-inhibitory concentration (IC50) in data set [1] of 150 nM. The molecule also displayed a CC50 at 72 h in data set [3] greater than 100000 nM.

Molecule `CC(C)C[C@H](NC(=O)OCc1cccc(F)c1)C(=O)N[C@H](C=O)C[C@@H]1CCNC1=O` [Compound 18b, 3-Fluorobenzyl ((S)-4-methyl-1-oxo-1-(((S)-1-oxo-3-((S)-2-oxopyrrolidin-3-yl)propan-2-yl)amino)pentan-2-yl)carbamate] displayed an IC50 in data set [2] of 320 nM. In data set [3], the CC50 at 72 h is greater than 100000 nM.

For the molecule `[2H]C([2H])(OC(=O)N[C@@H](CC(C)C)C(=O)N[C@@H](CC1CCNC1=O)C(O)S(=O)(=O)O)c1c(F)c(F)c(F)c(F)c1F` (stereo partly drawn) [Compound 22c, Sodium (2S)-1-hydroxy-2-((S)-4-methyl-2-((((perfluorophenyl)methoxy-d2)carbonyl)amino)pentanamido)-3-(2-oxopyrrolidin-3-yl) propane-1-sulfonate], in data set [2], the half-maximal inhibitory concentration (IC50) worked out at 450 nM. Also, in data set [3], the CC50 at 72 h is greater than 100000 nM.

With `CC(C)C[C@H](NC(=O)OC(c1ccccc1)C1CCC(F)(F)CC1)C(=O)N[C@H](C=O)C[C@@H]1CCNC1=O` (stereo partly drawn) [Compound 15b, (4,4-Difluorocyclohexyl)(phenyl)methyl ((S)-4-methyl-1-oxo-1-(((S)-1-oxo-3-((S)-2-oxopyrrolidin-3-yl)propan-2-yl)amino)pentan-2-yl)carbamate], the concentration for half-maximal inhibition (IC50) in data set [2] was found to be 100 nM. In data set [3], this molecule returned a CC50 at 72 h greater than 100000 nM.

Take `CCCC(OC(=O)N[C@@H](CC(C)C)C(=O)N[C@@H](C[C@@H]1CCNC1=O)C(O)S(=O)(=O)O)c1ccccc1` (mixture of isomers) [Compound 23c, Sodium(2S)-1-hydroxy-2-((2S)-4-methyl-2-(((1-phenylbutoxy)carbonyl)amino)pentanamido)-3-((S)-2-oxopyrrolidin-3-yl)propane-1-sulfonate]: the IC50 in data set [1] (read-out: IC50) was found to be 130 nM. Besides, the half-maximal cytotoxic concentration (CC50) at 72 h in data set [3] is greater than 100000 nM.

As to `CC(C)C[C@H](NC(=O)OC(C)(C)C1CCC(F)(F)CC1)C(=O)N[C@H](C=O)C[C@@H]1CCNC1=O` [Compound 13b, 2-(4,4-Difluorocyclohexyl)propan-2-yl ((S)-4-methyl-1-oxo-1-(((S)-1-oxo-3-((S)-2-oxopyrrolidin-3-yl)propan-2-yl)amino)pentan-2-yl)carbamate], in data set [2], the IC50 was found to be 800 nM. In data set [3], this molecule displayed a cytotoxic concentration (CC50) at 72 h greater than 100000 nM.

In turn, `CC(C)CC(NC(=O)OC1CCC(C(C)C)CC1)C(=O)NC(CC1CCNC1=O)C(O)S(=O)(=O)O` [Compound 2c, Sodium (2S)-1-hydroxy-2-((S)-2-(((((1r,4S)-4-isopropylcyclohexyl)oxy)carbonyl)amino)-4-methylpentanamido)-3-((S)-2-oxopyrrolidin-3-yl)propane-1-sulfonate] gave a 50% inhibitory concentration (IC50) in data set [2] of 230 nM. The same molecule had a CC50 at 72 h in data set [3] greater than 100000 nM.

`CC(C)C[C@H](NC(=O)OCCCC1CCCCC1)C(=O)N[C@@H](C[C@@H]1CCNC1=O)C(O)S(=O)(=O)O` (stereo partly drawn) [Compound 7f (Scheme 1), sodium (2S)-2-((S)-2-(((3-cyclohexylpropoxy)carbonyl)amino)-4-methylpentanamido)-1-hydroxy-3-((S)-2-oxopyrrolidin-3-yl)propane-1-sulfonate]: it took 640 nM to reach half-maximal inhibition in data set [1] (IC50). Further, the half-maximal cytotoxic concentration (CC50) at 72 h in data set [3] was greater than 100000 nM.

With `[2H]C([2H])(OC(=O)N[C@@H](CC(C)C)C(=O)N[C@H](C=O)CC1CCNC1=O)c1c(F)c(F)c(F)c(F)c1F` (stereo partly drawn) [Compound 22b, (Perfluorophenyl)methyl-d2 ((2S)-4-methyl-1-oxo-1-(((2S)-1-oxo-3-(2-oxopyrrolidin-3-yl)propan-2-yl)amino)pentan-2-yl) carbamate], half-maximal inhibition in data set [2] (IC50) was put at 630 nM. The CC50 at 72 h in data set [3] is greater than 100000 nM.

Consider `CC(C)C[C@H](NC(=O)OC(C)(C)C1CCC(F)(F)CC1)C(=O)N[C@@H](C[C@@H]1CCNC1=O)C(O)S(=O)(=O)[O-].[Na+]` (stereo partly drawn) [Compound 13c, Sodium (2S)-2-((S)-2-((((2-(4,4-difluorocyclohexyl)propan-2-yl)oxy)carbonyl)amino)-4-methylpentanamido)-1-hydroxy-3-((S)-2-oxopyrrolidin-3-yl)propane-1-sulfonate], for which, in data set [2], the midpoint of inhibition, the IC50, lay at 900 nM; the “fold higher IC50 than those of 12b and 14c” value was roughly 4 fold. The molecule further showed a cytotoxic concentration (CC50) at 72 h in data set [3] greater than 100000 nM.

On to `CCCC1CCC(OC(=O)NC(CC(C)C)C(=O)NC(C=O)CC2CCNC2=O)CC1` [Compound 3b, (1s,4S)-4-propylcyclohexyl ((S)-4-methyl-1-oxo-1-(((S)-1-oxo-3-((S)-2-oxopyrrolidin-3-yl)propan-2-yl)amino)pentan-2-yl)carbamate], for which the midpoint of inhibition in data set [2], the IC50, lay at 260 nM. The molecule further returned a half-maximal cytotoxic concentration (CC50) at 72 h in data set [3] greater than 100000 nM.

`CC(C)C[C@H](NC(=O)OC(c1ccccc1)C1CCC(F)(F)CC1)C(=O)N[C@@H](C[C@@H]1CCNC1=O)C(O)S(=O)(=O)O` (stereo partly drawn) [Compound 15c, Sodium (2S)-2-((2S)-2-((((4,4-difluorocyclohexyl)(phenyl)methoxy)carbonyl)amino)-4-methylpentanamido)-1-hydroxy-3-((S)-2-oxopyrrolidin-3-yl)propane-1-sulfonate] registered an IC50 in data set [2] of 160 nM. Moreover, in data set [3], the 50% cytotoxic concentration (CC50) at 72 h was greater than 100000 nM.
